Experimental data taken from US4695648A, “Novel arylacetic acid derivatives” (Pharmacia AB, priority 1984, dated 1987).

Target: T1, 15-hydroxy-prostaglandin dehydrogenase (PGDH) (Homo sapiens, UniProt P15428)
T1 construct: cell-free preparations of human placenta (containing PGDH); from tissue; host or cells: human placenta, cell-free preparation
T1 sequence (P15428 1-266): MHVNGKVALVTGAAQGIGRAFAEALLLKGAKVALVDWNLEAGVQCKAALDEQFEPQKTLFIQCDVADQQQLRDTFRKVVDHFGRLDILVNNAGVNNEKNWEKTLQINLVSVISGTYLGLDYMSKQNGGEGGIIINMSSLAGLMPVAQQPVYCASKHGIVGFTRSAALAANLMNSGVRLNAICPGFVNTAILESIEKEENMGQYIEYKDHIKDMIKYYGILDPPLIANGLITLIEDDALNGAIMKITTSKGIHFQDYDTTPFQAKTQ
Assay: Inhibition of 15-Hydroxy Prostaglandin Dehydrogenase (in vitro, cell-free preparations of human placenta, radioactive PGF2 degradation)
Type: biochemical
Conditions: 50% inhibition of degradation of radioactive PGF2 vs controls without inhibitor
Experimental: Radioactive prostaglandin F2 (PGF2 ) is incubated with cell-free preparations of human placenta (containing PGDH) as desribed by Hoult and Moore, Brithish Journal of Pharmacology Vol. 61 (1977), p. 615. After a suitable incubation period the prostaglandins are extracted and separated chromatographically. The amount of unchanged PGF2 is then compared with the amount of metabolites. The inhibitory effect is evaluated by measurement of the effect in the presence of different amounts of added inhibitor and determination of the concentration (IC50 ) at which 50% inhibition of degradation has been obtained as compared to controls run without inhibitor additions. Very good inhibitors are considered to be those that inhibit PGDH by 50% at a concentration of 10 μM or less. Good inhibitors are considered to be those that inhibit at a concentration of between 10 and 100 μM. Also where a compound has to be classified as less good this will often be compensated in actual practice by other valuable properties, such as for instance a low toxicity or particularly suitable pharmacokinetic properties.
The Table below sets forth IC50 values for a number of compounds according to the invention. For comparison the Table also gives the IC50 value of 5-phenylazo-2-hydroxybenzeneacetic acid which is a known effective PGDH inhibitor described in EP,-A-No. 21229.

SMILES | IC50 [nM]
O=C(O)Cc1cc(N=Nc2ccccc2)ccc1O [5-phenylazo-2-hydroxybenzeneacetic acid, reference compound] | 12000
Cc1cc(C)cc(C(=O)c2ccc(O)c(CC(=O)O)c2)c1 [Example 3, 5-(3,5-Dimethyl-benzoyl)-2-hydroxy-benzeneacetic acid] | 22000
O=C(O)Cc1cc(C=Cc2ccccc2)ccc1O [Example 4, 2-Hydroxy-5-(2-phenyl-1-ethenyl)-benzeneacetic acid] | 20000
O=C(O)Cc1cc(C(=O)c2ccccc2)cc(Br)c1O [Example 9, 5-Benzoyl-3-bromo-2-hydroxy-benzeneacetic acid] | 42000
O=C(O)Cc1cc(C(=O)Cc2ccccc2)ccc1O [Example 14, 5-(2-Phenylacetyl)-2-hydroxy-benzeneacetic acid] | 56000
O=C(O)Cc1cc(C(=O)Cc2ccc(C(=O)O)cc2)ccc1O [Example 15, 2-Hydroxy-5-(2-(4-carboxyphenyl)-acetyl)-benzeneacetic acid] | 1700
O=C(O)Cc1cc(C(=O)C=Cc2ccccc2)ccc1O [Example 16, 5-(3-Phenyl-1-oxo-2-propenyl)-2-hydroxy-benzeneacetic acid] | 12000
O=C(O)Cc1cc(C(=O)C=Cc2ccc(C(=O)O)cc2)ccc1O [Example 17, 2-Hydroxy-5-(3-(4-carboxyphenyl)-1-oxo-2-propenyl)benzeneacetic acid] | 1400
O=C(O)Cc1cc(C(=O)c2cccc(C(=O)O)c2)ccc1O [Example 18, 2-Hydroxy-5-(3-carboxybenzoyl)-benzeneacetic acid] | 6000
COC(=O)Cc1cc(C(=O)c2ccc(F)cc2)ccc1O [Example 20, Methyl-5-(4-fluorobenzoyl)-2-hydroxy-benzeneacetate] | 4900
COc1ccc(C=CC(=O)c2ccc(O)c(CC(=O)O)c2)cc1 [Example 30, 5-(3-(4-Methoxyphenyl)-1-oxo-2-propenyl)-2-hydroxybenzeneacetic acid] | 1900

The remaining compounds from weak to strong by IC50, led by results:

IC50 [nM] | SMILES
1400 | O=C(O)Cc1cc(C(=O)c2ccccc2)ccc1O [Example 1, 5-Benzoyl-2-hydroxy-benzeneacetic acid]
1300 | O=C(O)Cc1cc(C(=O)c2ccc(C(=O)O)cc2)ccc1O [Example 7, 2-Hydroxy-5-(4-carboxybenzoyl)-benzeneacetic acid]
1300 | O=C(O)Cc1cc(C(=O)c2cccc(F)c2)ccc1O [Example 12, 5-(3-Fluorobenzoyl)-2-hydroxy-benzeneacetic acid]
1300 | CC(C)c1ccc(C=CC(=O)c2ccc(O)c(CC(=O)O)c2)cc1 [Example 29, 5-(3-(4-(1-Methyl-ethyl)-phenyl)-1-oxo-2-propenyl)-2-hydroxy-benzeneacetic acid]
740 | N#Cc1ccc(C(=O)c2ccc(O)c(CC(=O)O)c2)cc1 [Example 6, 5-(4-Cyanobenzoyl)-2-hydroxy-benzeneacetic acid]
740 | O=C(O)Cc1cc(C(=O)c2ccccc2F)ccc1O [Example 10, 5-(2-Fluorobenzoyl)-2-hydroxy-benzeneacetic acid]
630 | CC(=O)c1ccc(C(=O)c2ccc(O)c(CC(=O)O)c2)cc1 [Example 32, 5-(4-Acetylbenzoyl)-2-hydroxy-benzeneacetic acid]
600 | O=C(O)Cc1cc(C(=O)c2ccc(Cl)cc2)ccc1O [Example 5, 2-Hydroxy-5-(4-chlorobenzoyl)-benzeneacetic acid]
580 | O=C(O)Cc1cc(C(=O)c2ccc(F)cc2)ccc1O [Example 21, 5-(4-Fluorobenzoyl)-2-hydroxy-benzeneacetic acid]
400 | O=C(O)Cc1cc(C=Cc2ccc(C(=O)O)cc2)ccc1O [Example 33, 2-Hydroxy-5-(2-(4-carboxyphenyl)-1-ethenyl)-benzeneacetic acid]
380 | O=C(O)Cc1cc(C(=O)c2c(F)cccc2F)ccc1O [Example 25, 5-(2,6-Difluorobenzoyl)-2-hydroxy-benzeneacetic acid]
210 | O=C(O)Cc1cc(C(=O)c2ccc(Cl)cc2Cl)ccc1O [Example 11, 5-(2,4-Dichlorobenzoyl)-2-hydroxy-benzeneacetic acid]
